Values joined by “and” are separate entries in the source; they are usually repeats but may differ in a detail not shown here. Identical values can stand only once.
Tests used:
[1] = test system: MDA-MB-231/ATCC; experiment: NCI-60 one-dose SRB screen (Breast Cancer); format: cell-based; conditions: Homo sapiens, single dose 10 µM, 48 h, read-out: Growth inhibition percent (GI %)
[2] = test system: MCF-7; experiment: NCI-60 one-dose SRB screen (Breast Cancer); format: cell-based; conditions: Homo sapiens, MCF7, single dose 10 µM, 48 h, read-out: Growth inhibition percent (GI %)
[3] = test system: HS 578T; experiment: NCI-60 one-dose SRB screen (Breast Cancer); format: cell-based; conditions: Homo sapiens, single dose 10 µM, 48 h, read-out: Growth inhibition percent (GI %)
[4] = test system: T-47D; experiment: NCI-60 one-dose SRB screen (Breast Cancer); format: cell-based; conditions: Homo sapiens, T47D, single dose 10 µM, 48 h, read-out: Growth inhibition percent (GI %)
[5] = test system: BT-549; experiment: NCI-60 one-dose SRB screen (Breast Cancer); format: cell-based; conditions: Homo sapiens, single dose 10 µM, 48 h, read-out: Growth inhibition percent (GI %)
[6] = test system: MDA-MB-468; experiment: NCI-60 one-dose SRB screen (Breast Cancer); format: cell-based; conditions: Homo sapiens, single dose 10 µM, 48 h, read-out: Growth inhibition percent (GI %)
[7] = target: hCA IX (Homo sapiens, UniProt Q16790); experiment: CA inhibitory activity, spectrophotometric p-NPA assay; format: biochemical; conditions: p-NPA substrate, pH 7.5, 25 °C, triplicate; read-out: IC50 (µM) ± SD hCA IX
[8] = test system: UACC-62; experiment: NCI-60 one-dose SRB screen (Melanoma); format: cell-based; conditions: Homo sapiens, single dose 10 µM, 48 h, read-out: Growth inhibition percent (GI %)
[9] = test system: SK-MEL-5; experiment: NCI-60 one-dose SRB screen (Melanoma); format: cell-based; conditions: Homo sapiens, single dose 10 µM, 48 h, read-out: Growth inhibition percent (GI %)
[10] = test system: M14; experiment: NCI-60 one-dose SRB screen (Melanoma); format: cell-based; conditions: Homo sapiens, single dose 10 µM, 48 h, read-out: Growth inhibition percent (GI %)
[11] = test system: UACC-257; experiment: NCI-60 one-dose SRB screen (Melanoma); format: cell-based; conditions: Homo sapiens, single dose 10 µM, 48 h, read-out: Growth inhibition percent (GI %)
[12] = test system: SK-MEL-2; experiment: NCI-60 one-dose SRB screen (Melanoma); format: cell-based; conditions: Homo sapiens, single dose 10 µM, 48 h, read-out: Growth inhibition percent (GI %)
[13] = test system: MDA-MB-435; experiment: NCI-60 one-dose SRB screen (Melanoma); format: cell-based; conditions: Homo sapiens, single dose 10 µM, 48 h, read-out: Growth inhibition percent (GI %)
[14] = test system: SK-MEL-28; experiment: NCI-60 one-dose SRB screen (Melanoma); format: cell-based; conditions: Homo sapiens, single dose 10 µM, 48 h, read-out: Growth inhibition percent (GI %)
[15] = test system: LOX IMVI; experiment: NCI-60 one-dose SRB screen (Melanoma); format: cell-based; conditions: Homo sapiens, single dose 10 µM, 48 h, read-out: Growth inhibition percent (GI %)
[16] = test system: MALME-3M; experiment: NCI-60 one-dose SRB screen (Melanoma); format: cell-based; conditions: Homo sapiens, single dose 10 µM, 48 h, read-out: Growth inhibition percent (GI %)
[17] = test system: SK-OV-3; experiment: NCI-60 one-dose SRB screen (Ovarian cancer); format: cell-based; conditions: Homo sapiens, single dose 10 µM, 48 h, read-out: Growth inhibition percent (GI %)
[18] = test system: NCI/ADR-RES; experiment: NCI-60 one-dose SRB screen (Ovarian cancer); format: cell-based; conditions: Homo sapiens, single dose 10 µM, 48 h, read-out: Growth inhibition percent (GI %)
[19] = test system: OVCAR-4; experiment: NCI-60 one-dose SRB screen (Ovarian cancer); format: cell-based; conditions: Homo sapiens, single dose 10 µM, 48 h, read-out: Growth inhibition percent (GI %)
[20] = test system: OVCAR-5; experiment: NCI-60 one-dose SRB screen (Ovarian cancer); format: cell-based; conditions: Homo sapiens, single dose 10 µM, 48 h, read-out: Growth inhibition percent (GI %)
[21] = test system: OVCAR-8; experiment: NCI-60 one-dose SRB screen (Ovarian cancer); format: cell-based; conditions: Homo sapiens, single dose 10 µM, 48 h, read-out: Growth inhibition percent (GI %)
[22] = test system: IGROV1; experiment: NCI-60 one-dose SRB screen (Ovarian cancer); format: cell-based; conditions: Homo sapiens, IGROV-1, single dose 10 µM, 48 h, read-out: Growth inhibition percent (GI %)
[23] = test system: OVCAR-3; experiment: NCI-60 one-dose SRB screen (Ovarian cancer); format: cell-based; conditions: Homo sapiens, single dose 10 µM, 48 h, read-out: Growth inhibition percent (GI %)
[24] = test system: EKVX; experiment: NCI-60 one-dose SRB screen (Non-Small Cell Lung Cancer); format: cell-based; conditions: Homo sapiens, single dose 10 µM, 48 h, read-out: Growth inhibition percent (GI %)
[25] = test system: NCI-H460; experiment: as above; format: cell-based; conditions: Homo sapiens, single dose 10 µM, 48 h, read-out: Growth inhibition percent (GI %)
[26] = test system: HOP-92; experiment: as above; format: cell-based; conditions: Homo sapiens, single dose 10 µM, 48 h, read-out: Growth inhibition percent (GI %)
[27] = test system: A549/ATCC; experiment: as above; format: cell-based; conditions: Homo sapiens, single dose 10 µM, 48 h, read-out: Growth inhibition percent (GI %)
[28] = test system: NCI-H522; experiment: as above; format: cell-based; conditions: Homo sapiens, single dose 10 µM, 48 h, read-out: Growth inhibition percent (GI %)
[29] = test system: NCI-H322M; experiment: as above; format: cell-based; conditions: Homo sapiens, single dose 10 µM, 48 h, read-out: Growth inhibition percent (GI %)
[30] = test system: HOP-62; experiment: as above; format: cell-based; conditions: Homo sapiens, single dose 10 µM, 48 h, read-out: Growth inhibition percent (GI %)
[31] = test system: NCI-H23; experiment: as above; format: cell-based; conditions: Homo sapiens, single dose 10 µM, 48 h, read-out: Growth inhibition percent (GI %)
[32] = test system: NCI-H226; experiment: as above; format: cell-based; conditions: Homo sapiens, single dose 10 µM, 48 h, read-out: Growth inhibition percent (GI %)
[33] = test system: SNB-75; experiment: NCI-60 one-dose SRB screen (CNS Cancer); format: cell-based; conditions: Homo sapiens, single dose 10 µM, 48 h, read-out: Growth inhibition percent (GI %)
[34] = test system: SF-268; experiment: NCI-60 one-dose SRB screen (CNS Cancer); format: cell-based; conditions: Homo sapiens, single dose 10 µM, 48 h, read-out: Growth inhibition percent (GI %)
[35] = test system: U251; experiment: NCI-60 one-dose SRB screen (CNS Cancer); format: cell-based; conditions: Homo sapiens, U-251, single dose 10 µM, 48 h, read-out: Growth inhibition percent (GI %)
[36] = test system: SNB-19; experiment: NCI-60 one-dose SRB screen (CNS Cancer); format: cell-based; conditions: Homo sapiens, single dose 10 µM, 48 h, read-out: Growth inhibition percent (GI %)
[37] = test system: SF-295; experiment: NCI-60 one-dose SRB screen (CNS Cancer); format: cell-based; conditions: Homo sapiens, single dose 10 µM, 48 h, read-out: Growth inhibition percent (GI %)
[38] = test system: SF-539; experiment: NCI-60 one-dose SRB screen (CNS Cancer); format: cell-based; conditions: Homo sapiens, single dose 10 µM, 48 h, read-out: Growth inhibition percent (GI %)
[39] = test system: MOLT-4; experiment: NCI-60 one-dose SRB screen (Leukemia); format: cell-based; conditions: Homo sapiens, single dose 10 µM, 48 h, read-out: Growth inhibition percent (GI %)
[40] = test system: HL-60(TB); experiment: NCI-60 one-dose SRB screen (Leukemia); format: cell-based; conditions: Homo sapiens, single dose 10 µM, 48 h, read-out: Growth inhibition percent (GI %)
[41] = test system: K-562; experiment: NCI-60 one-dose SRB screen (Leukemia); format: cell-based; conditions: Homo sapiens, K562, single dose 10 µM, 48 h, read-out: Growth inhibition percent (GI %)
[42] = test system: CCRF-CEM; experiment: NCI-60 one-dose SRB screen (Leukemia); format: cell-based; conditions: Homo sapiens, single dose 10 µM, 48 h, read-out: Growth inhibition percent (GI %)
[43] = test system: RPMI-8226; experiment: NCI-60 one-dose SRB screen (Leukemia); format: cell-based; conditions: Homo sapiens, single dose 10 µM, 48 h, read-out: Growth inhibition percent (GI %)
[44] = test system: PC-3; experiment: NCI-60 one-dose SRB screen (Prostate Cancer); format: cell-based; conditions: Homo sapiens, single dose 10 µM, 48 h, read-out: Growth inhibition percent (GI %)
[45] = test system: DU-145; experiment: NCI-60 one-dose SRB screen (Prostate Cancer); format: cell-based; conditions: Homo sapiens, single dose 10 µM, 48 h, read-out: Growth inhibition percent (GI %)

NC(=S)NNC(=O)c1cn(-c2ccc(S(N)(=O)=O)cc2)nc1-c1ccccc1 [Compound 9a, 2-[3-Phenyl-1-(4-sulfamoylphenyl)-1H-pyrazole-4-carbonyl] hydrazine-1-carbothioamide]
melting point: 180 to 181 °C | inhibition at 10 µM [1]: < 5% | inhibition at 10 µM [2]: < 5% | inhibition at 10 µM [3]: < 5% | inhibition at 10 µM [4]: < 5% | inhibition at 10 µM [5]: < 5% | inhibition at 10 µM [6]: < 5% | IC50 [7]: 0.21 µM and 0.215 µM | inhibition at 10 µM [8]: 8.26% | inhibition at 10 µM [9]: < 5% | inhibition at 10 µM [10]: < 5% | inhibition at 10 µM [11]: < 5% | inhibition at 10 µM [12]: < 5% | inhibition at 10 µM [13]: < 5% | inhibition at 10 µM [14]: < 5% | inhibition at 10 µM [15]: < 5% | inhibition at 10 µM [16]: < 5% | inhibition at 10 µM [17]: < 5% | inhibition at 10 µM [18]: < 5% | inhibition at 10 µM [19]: < 5% | inhibition at 10 µM [20]: < 5% | inhibition at 10 µM [21]: < 5% | inhibition at 10 µM [22]: < 5% | inhibition at 10 µM [23]: < 5% | inhibition at 10 µM [24]: < 5% | inhibition at 10 µM [25]: < 5% | inhibition at 10 µM [26]: < 5% | inhibition at 10 µM [27]: 10.9% | inhibition at 10 µM [28]: 23.9% | inhibition at 10 µM [29]: < 5% | inhibition at 10 µM [30]: 8.3% | inhibition at 10 µM [31]: < 5% | inhibition at 10 µM [32]: < 5% | inhibition at 10 µM [33]: < 5% | inhibition at 10 µM [34]: < 5% | inhibition at 10 µM [35]: < 5% | inhibition at 10 µM [36]: < 5% | inhibition at 10 µM [37]: < 5% | inhibition at 10 µM [38]: 6.07% | inhibition at 10 µM [39]: < 5% | inhibition at 10 µM [40]: < 5% | inhibition at 10 µM [41]: < 5% | inhibition at 10 µM [42]: < 5% | inhibition at 10 µM [43]: < 5% | inhibition at 10 µM [44]: < 5% | inhibition at 10 µM [45]: < 5%

Cc1ccc(-c2nn(-c3ccc(S(N)(=O)=O)cc3)cc2C(=O)NNC(N)=S)cc1 [Compound 9b, 2-[1-(4-Sulfamoylphenyl)-3-(p-tolyl)-1H-pyrazole-4-carbonyl] hydrazine-1-carbothioamide]
melting point: 178 to 180 °C | inhibition at 10 µM [1]: < 5% | inhibition at 10 µM [2]: < 5% | inhibition at 10 µM [3]: < 5% | inhibition at 10 µM [4]: < 5% | inhibition at 10 µM [5]: < 5% | inhibition at 10 µM [6]: < 5% | IC50 [7]: 0.33 µM and 0.339 µM | inhibition at 10 µM [8]: 5.9% | inhibition at 10 µM [9]: < 5% | inhibition at 10 µM [10]: < 5% | inhibition at 10 µM [11]: < 5% | inhibition at 10 µM [12]: < 5% | inhibition at 10 µM [13]: < 5% | inhibition at 10 µM [14]: < 5% | inhibition at 10 µM [15]: < 5% | inhibition at 10 µM [16]: < 5% | inhibition at 10 µM [17]: < 5% | inhibition at 10 µM [18]: < 5% | inhibition at 10 µM [19]: < 5% | inhibition at 10 µM [20]: < 5% | inhibition at 10 µM [21]: < 5% | inhibition at 10 µM [22]: < 5% | inhibition at 10 µM [23]: < 5% | inhibition at 10 µM [24]: < 5% | inhibition at 10 µM [25]: < 5% | inhibition at 10 µM [26]: < 5% | inhibition at 10 µM [27]: < 5% | inhibition at 10 µM [28]: < 5% | inhibition at 10 µM [29]: < 5% | inhibition at 10 µM [30]: < 5% | inhibition at 10 µM [31]: < 5% | inhibition at 10 µM [32]: < 5% | inhibition at 10 µM [33]: 6.3% | inhibition at 10 µM [34]: < 5% | inhibition at 10 µM [35]: < 5% | inhibition at 10 µM [36]: < 5% | inhibition at 10 µM [37]: < 5% | inhibition at 10 µM [38]: 5.95% | inhibition at 10 µM [39]: < 5% | inhibition at 10 µM [40]: < 5% | inhibition at 10 µM [41]: < 5% | inhibition at 10 µM [42]: 19.6% | inhibition at 10 µM [43]: < 5% | inhibition at 10 µM [44]: < 5% | inhibition at 10 µM [45]: < 5%
